Assay results published in ChEMBL document CHEMBL4732134, “Identification of N-phenyl-3-methoxy-4-pyridinones as orally bioavailable H receptor antagonists and β-amyloid aggregation inhibitors for the treatment of Alzheimer's disease” (Eur J Med Chem, 2021).

Key:
[1] = target: Histamine H2 receptor (Homo sapiens, UniProt P25021); assay: Antagonist activity at human histamine H2 receptor expressed in HEK293 cells preincubated for 5 mins followed by forskolin-stimulation and measured after 5 hrs by CRE-driven luciferase reporter gene assay; type: functional, cell-based
Chain of Histamine H2 receptor (P25021 whole entry): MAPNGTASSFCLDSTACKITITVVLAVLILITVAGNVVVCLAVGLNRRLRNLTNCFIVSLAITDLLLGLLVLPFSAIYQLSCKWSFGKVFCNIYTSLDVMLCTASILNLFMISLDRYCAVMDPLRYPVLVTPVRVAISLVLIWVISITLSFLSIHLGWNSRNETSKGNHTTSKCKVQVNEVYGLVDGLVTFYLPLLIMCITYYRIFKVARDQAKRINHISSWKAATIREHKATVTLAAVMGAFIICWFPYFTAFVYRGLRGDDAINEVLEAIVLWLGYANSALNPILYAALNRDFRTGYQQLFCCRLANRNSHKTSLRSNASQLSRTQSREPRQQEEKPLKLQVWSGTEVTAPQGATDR

[2] = target: Histamine H4 receptor (Homo sapiens, UniProt Q9H3N8); assay: Antagonist activity at human histamine H4 receptor expressed in HEK293 cells preincubated for 5 mins followed by forskolin-stimulation and measured after 5 hrs by CRE-driven luciferase reporter gene assay; type: functional, cell-based
[3] = target: Histamine H1 receptor (Homo sapiens, UniProt P35367); assay: Antagonist activity at human histamine H1 receptor expressed in HEK293 cells preincubated for 5 mins followed by forskolin-stimulation and measured after 5 hrs by CRE-driven luciferase reporter gene assay; type: functional, cell-based
Chain of Histamine H1 receptor (P35367 whole entry): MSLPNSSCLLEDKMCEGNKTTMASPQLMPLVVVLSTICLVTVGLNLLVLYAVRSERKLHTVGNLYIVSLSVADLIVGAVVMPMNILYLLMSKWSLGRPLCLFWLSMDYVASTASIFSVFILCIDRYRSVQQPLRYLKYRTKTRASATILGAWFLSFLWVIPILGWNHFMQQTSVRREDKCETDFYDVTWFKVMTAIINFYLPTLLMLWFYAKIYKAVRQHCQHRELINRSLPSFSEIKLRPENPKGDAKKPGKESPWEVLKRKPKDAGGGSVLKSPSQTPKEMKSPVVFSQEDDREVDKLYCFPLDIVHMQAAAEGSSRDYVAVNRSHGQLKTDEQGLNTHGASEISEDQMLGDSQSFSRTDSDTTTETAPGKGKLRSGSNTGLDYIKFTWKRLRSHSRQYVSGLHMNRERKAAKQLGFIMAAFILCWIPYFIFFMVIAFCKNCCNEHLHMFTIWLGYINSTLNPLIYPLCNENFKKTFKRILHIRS

[4] = target: hERG (KCNH2) (Homo sapiens, UniProt Q12809); assay: Inhibition of human ERG at 3 uM by patch clamp method relative to control
Chain of hERG (KCNH2) (Q12809 whole entry): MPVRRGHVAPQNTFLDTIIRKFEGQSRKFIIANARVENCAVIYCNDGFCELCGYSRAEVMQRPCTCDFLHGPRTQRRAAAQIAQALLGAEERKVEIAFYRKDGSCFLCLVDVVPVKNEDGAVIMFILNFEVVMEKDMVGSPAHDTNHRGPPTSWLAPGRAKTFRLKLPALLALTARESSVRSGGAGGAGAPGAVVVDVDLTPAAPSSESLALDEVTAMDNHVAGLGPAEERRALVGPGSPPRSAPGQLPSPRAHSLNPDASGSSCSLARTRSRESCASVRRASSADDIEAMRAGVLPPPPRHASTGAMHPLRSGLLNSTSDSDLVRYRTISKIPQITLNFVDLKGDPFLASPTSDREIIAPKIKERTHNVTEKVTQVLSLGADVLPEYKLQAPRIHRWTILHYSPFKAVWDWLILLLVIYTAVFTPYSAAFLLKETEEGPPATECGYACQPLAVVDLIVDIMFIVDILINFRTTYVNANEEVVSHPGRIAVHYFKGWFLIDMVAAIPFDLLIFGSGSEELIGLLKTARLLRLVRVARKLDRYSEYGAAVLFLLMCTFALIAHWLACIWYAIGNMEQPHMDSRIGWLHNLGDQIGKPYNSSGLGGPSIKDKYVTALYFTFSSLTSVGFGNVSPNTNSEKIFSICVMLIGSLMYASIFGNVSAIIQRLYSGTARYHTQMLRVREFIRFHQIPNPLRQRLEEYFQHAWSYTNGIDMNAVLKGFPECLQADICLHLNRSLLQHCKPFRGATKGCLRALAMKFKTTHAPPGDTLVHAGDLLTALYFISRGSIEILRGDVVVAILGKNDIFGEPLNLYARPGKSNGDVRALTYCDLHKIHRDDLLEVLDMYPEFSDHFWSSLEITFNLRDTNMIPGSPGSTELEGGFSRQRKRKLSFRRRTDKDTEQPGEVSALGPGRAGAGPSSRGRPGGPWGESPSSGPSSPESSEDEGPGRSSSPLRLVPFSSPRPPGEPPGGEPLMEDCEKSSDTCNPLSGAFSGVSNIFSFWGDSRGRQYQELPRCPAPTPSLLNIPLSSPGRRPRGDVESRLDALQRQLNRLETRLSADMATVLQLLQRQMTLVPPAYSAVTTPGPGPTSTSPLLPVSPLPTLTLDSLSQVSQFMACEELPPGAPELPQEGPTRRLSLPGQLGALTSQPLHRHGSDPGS

IC50 [1]: > 10 µM | IC50 [2]: > 10 µM | IC50 [3]: > 10 µM
SMILES: COc1cn(-c2ccc(OCCCN3CCCC3)cc2)ccc1=O
inhibition at 3 µM [4]: 6.3%
